One compound from patent US10165775B2, “Pesticidal compositions and processes related thereto” (Dow AgroSciences LLC, priority 2011, dated 2019) can be followed below.

Data set [1] relates to Green Peach Aphid (GPA) (Myrzus persicae) (MYZUPE). Description: Bioassay on green peach aphid (GPA), foliar spray on cabbage seedlings. The format is in vivo. To be noted: Myzus persicae, 72 h, 200 ppm foliar spray, graded after three days, Abbott corrected % control, read-out: MYZUPE % Ctrl @ 200 ppm. As for the experimental part: Certain molecules disclosed in this document were tested against GPA using procedures described in the following example. In the reporting of the results, “Table 3: GPA (MYZUPE) and sweetpotato whitefly-crawler (BEMITA) Rating Table” was used (See Table Section).
Cabbage seedlings grown in 3-inch pots, with 2-3 small (3-5 cm) true leaves, were used as test substrate. The seedlings were infested with 20-50 GPA (wingless adult and nymph stages) one day prior to chemical application. Four pots with individual seedlings were used for each treatment. Test compounds (2 mg) were dissolved in 2 mL of acetone/methanol (1:1) solvent, forming stock solutions of 1000 ppm test compound. The stock solutions were diluted 5× with 0.025% Tween 20 in H2O to obtain the solution at 200 ppm test compound. A hand-held aspirator-type sprayer was used for spraying a solution to both sides of […] leaves until runoff. Reference plants (solvent check) were sprayed with the diluent only containing 20% by volume of acetone/methanol (1:1) solvent. Treated plants were held in a holding room for three days at approximately 25° C. and ambient relative humidity (RH) prior to grading. Evaluation was conducted by counting the number of live aphids per plant under a microscope. Percent Control was measured by using Abbott's correction formula (W. S. Abbott. “A Method of Computing the Effectiveness of an Insecticide” J. Econ. Entomol. 18 (1925), pp. 265-267) as follows. Corrected % Control=100*(X−Y)/X • where • X=No. of live aphids on solvent check plants and • Y=No. of live aphids on treated plants
Biological Data for GPA (MYZUPE) and sweetpotato whitefly-crawler (BEMITA)” (See Table Section).

The test system of data set [2] is Sweetpotato whitefly-crawler (Bemisia tabaci) (BEMITA). In words: Insecticidal test for sweetpotato whitefly-crawler in foliar spray assay on cotton plants. The format is in vivo. To be noted: 200 ppm foliar spray, graded after 8-9 days, Abbott corrected % control, read-out: BEMITA % Ctrl @ 200 ppm. As for the experimental part: Cotton plants grown in 3-inch pots, with 1 small (3-5 cm) true leaf, were used as test substrate. The plants were placed in a room with whitefly adults. Adults were allowed to deposit eggs for 2-3 days. After a 2-3 day egg-laying period, plants were taken from the adult whitefly room. Adults were blown off leaves using a hand-held Devilbiss sprayer (23 psi). Plants with egg infestation (100-300 eggs per plant) were placed in a holding room for 5-6 days at 82° F. and 50% RH for egg hatch and crawler stage to develop. Four cotton plants were used for each treatment. Compounds (2 mg) were dissolved in 1 mL of acetone solvent, forming stock solutions of 2000 ppm. The stock solutions were diluted 10× with 0.025% Tween 20 in H2O to obtain a test solution at 200 ppm. A hand-held Devilbiss sprayer was used for spraying a solution to both sides of cotton leaf until runoff. Reference plants (solvent check) were sprayed with the diluent only. Treated plants were held in a holding room for 8-9 days at approximately 82° F. and 50% RH prior to grading. Evaluation was conducted by counting the number of live nymphs per plant under a microscope. Insecticidal activity was measured by using Abbott's correction formula and presented in “Table 4. Biological Data for GPA (MYZUPE) and sweetpotato whitefly-crawler (BEMITA)” (see column “BEMITA”): Corrected % Control=100*(X−Y)/X • where X=No. of live nymphs on solvent check plants • Y=No. of live nymphs on treated plants Pesticidally Acceptable Acid Addition Salts, Salt Derivatives, Solvates, Ester Derivatives, Polymorphs, Isotopes and Radionuclides

Each structure is given as a SMILES string.

One may read the melting point as the temperature, or range, at which the solid turns liquid. The compound `C#CCN(C(=O)C(C)C)c1cn(-c2cccnc2)nc1Cl` [Compound 610] came in with a melting point of 98 to 99 °C. Also, the pest or weed control at 200 ppm in data set [1] lay within 80 to 100%. Further, in data set [2], the pest or weed control at 200 ppm is 80 to 100%.
